The text below walks through data of patent publication US11860169B2, “Method of treating and prognosing scoliotic patient subgroups” (Chu Sainte-Justine, priority 2013, dated 2024).

“Also recorded” adds a separate entry of the source.

Data set [1] relates to Gi-mediated cell signaling. Kind of data set: Gi-mediated cellular response measured by cellular impedance (CellKey system) in osteoblasts treated with OPN, HA or antibodies. Format: cell-based, human. The note with it: LPA stimulation. The protocol: Gi-mediated cellular response in the presence of increasing amounts of rOPN was measured by cellular impedance using the CellKey™ system (Akoume et al., 2010; and Akoume et al., 2013 (J. Vis. Exp.)) in functional groups FG1, FG2 and FG3;
Osteoblasts from healthy subjects and AIS patients of each endophenotype (FG1, FG2 and FG3) were treated with vehicle, OPN (500 ng/ml) or HA (10 μM). The Gi-mediated cellular response in the presence of increasing amounts of LPA was measured by cellular impedance using the CellKey™ system;
(§1) CD44 activity (A) or expression (B) was inhibited in osteoblasts from control, FG1, FG2 and FG3 patients and the effect on OPN-dependent inhibition of Gi-mediated cell signaling was monitored using the CellKey™ system following stimulation with LPA.
Antibodies against integrins β1, β3 and β5 reverse the effect of OPN on Gi-mediated response in FG2 and FG3 subjects only, while blockade of CD44 further potentiates the effect of OPN.
(§2) The variation in Gi-mediated cell signaling in response to OPN in each functional group (FG1, FG2 and FG3) was studied. FIGS. 20 and 21 show the response to OPN (increasing doses) on osteoblasts isolated from patients classified into functional groups FG1, FG2 and FG3. […] Furthermore, MC3T3-E1 cells were used to check the effect of the knockdown of OPN and its receptors. MC3T3-E1 osteoblasts cells were transiently transfected in serum-free medium, using Lipofectamine™ RNAiMAX reagent (Invitrogen) according to the manufacturers instructions and functional experiments were performed 48 h post transfection.

For data set [2], the system named is Gi-mediated cell signaling. Kind of data set: Gi-mediated cellular response measured by cellular impedance (CellKey system) after siRNA knockdown in osteoblasts. The data set is classed as cell-based. The note with it: for Effect of siRNA on OPN-dependent change of Gi-mediated cell signaling: in presence of OPN; for Effect of OPN knock down on Gi-mediated transduction: 48 h post transfection. As to the method: Gi-mediated cellular response in the presence siRNAs against rOPN was measured by cellular impedance using the CellKey™ system (Akoume et al., 2010; and Akoume et al., 2013 (J. Vis. Exp.)) in functional groups FG1, FG2 and FG3;
as §1
SiRNAs against integrins β1, β3 and β5 reversed the effect of OPN on Gi-mediated response while blockade of CD44 further potentiated the effect of OPN.
as §2
MC3T3-E1 cells were also used to check the effect of the knockdown of OPN's receptors by RNAi. Experimental conditions were as described for Example 5. The sequence of RNA oligonucleotides used for the knockdowns are: integrin β1 (CCU MG UCA GCA GUA GGA ACA UUA U (SEQ ID NO: 15)), integrin β3 (CCUCCAGCUCAUUGUUGAUGCUUAU (SEQ ID NO: 16)); integrin β5 ([…], HSS-105572, Life technologies (SEQ ID NO: 17), […], HSS-105573, Life technologies (SEQ ID NO: 18); and […], HSS-179984, life technologies, (SEQ ID NO: 19)) and CD44 (GM CM GGA GUC GUC AGA MC UCC A (SEQ ID NO: 20)).

Setting [3] is: osteoblasts from FG1 AIS subjects, increasing rOPN, or OPN 500 ng/ml or HA 10 μM.
[4] abbreviates: osteoblasts from FG2 AIS subjects, increasing rOPN, or OPN 500 ng/ml or HA 10 μM.
Setting [5] is: osteoblasts from FG3 AIS subjects, increasing rOPN, or OPN 500 ng/ml or HA 10 μM.
The mark [6] stands for this setting: osteoblasts from control (healthy) subjects, OPN 500 ng/ml or HA 10 μM.
Where [7] appears, read: osteoblasts from control subjects.

With “OPN: osteopontin, encoded by SPP1 (Gene ID 6696); recombinant rOPN added to osteoblasts”, the “Effect on Gi-mediated cellular response” value is recorded as “enhances Gi signaling” in data set [1] (setting [3]), “aggravates the impairment” in data set [1] (setting [4]), “aggravates the impairment” in data set [1] (setting [5]) and “decreases the Gi-mediated response” in data set [1] (setting [6]).
As to “siRNA against CD44: RNA oligonucleotide for CD44 knockdown: GM CM GGA GUC GUC AGA MC UCC A (GAACAAGGAGUCGUCAGAAACUCCA; listed as RNA, chemistry not fully specified)”, the “Effect of siRNA on OPN-dependent change of Gi-mediated cell signaling” value is on record as “further increased Gi-mediated cell signaling” in data set [2] (osteoblasts from FG1 subjects), “further decreased Gi-mediated cell signaling; also recorded: further reduced Gi-mediated signaling” in data set [2] (osteoblasts from FG2 subjects), “further decreased Gi-mediated cell signaling; also recorded: further reduced Gi-mediated signaling” in data set [2] (osteoblasts from FG3 subjects) and “further decreased Gi-mediated cell signaling; also recorded: further reduced Gi-mediated signaling” in data set [2] (setting [7]).
On to “OPN siRNA: siRNA for knock down of OPN expression: CCA CAG CCA CM GCA GUC CAG AUU A (CCACAGCCACAAGCAGUCCAGAUUA; listed as RNA, chemistry not fully specified)”, for which the “Effect of OPN knock down on Gi-mediated transduction” value was “tends to decrease the response” in data set [2] (FG1), “increases Gi-mediated transduction” in data set [2] (FG2) and “increases Gi-mediated transduction” in data set [2] (FG3).
As for Hyaluronic acid [HA], the “Effect on Gi-mediated cellular response” value in data set [1] (setting [3]) was “increases the Gi-mediated cellular response”; in data set [1] (setting [4]) it was “decreases the Gi-mediated response”; in data set [1] (setting [5]) it was “decreases the Gi-mediated response”; in data set [1] (setting [6]), “decreases the Gi-mediated response”.
Regarding “siRNA against integrin β1: RNA oligonucleotide for integrin β1 knockdown: CCU MG UCA GCA GUA GGA ACA UUA U (CCUAAGUCAGCAGUAGGAACAUUAU; listed as RNA, chemistry not fully specified)”, the “Effect of siRNA on OPN-dependent change of Gi-mediated cell signaling” value was “reduced (blocked) the increase in Gi-mediated response induced by OPN” in data set [2] (osteoblasts from FG1 subjects), “can be reversed” in data set [2] (osteoblasts from FG2 subjects), “can be reversed” in data set [2] (osteoblasts from FG3 subjects) and “can be reversed” in data set [2] (setting [7]).
As for “siRNA against integrin β3: RNA oligonucleotide for integrin β3 knockdown: CCUCCAGCUCAUUGUUGAUGCUUAU (CCUCCAGCUCAUUGUUGAUGCUUAU; listed as RNA, chemistry not fully specified)”, the “Effect of siRNA on OPN-dependent change of Gi-mediated cell signaling” value in data set [2] (osteoblasts from FG1 subjects) was “reduced (blocked) the increase in Gi-mediated response induced by OPN”; in data set [2] (osteoblasts from FG2 subjects), “can be reversed”; in data set [2] (osteoblasts from FG3 subjects), “can be reversed”; in data set [2] (setting [7]), “can be reversed”.
